This is an account of results in patent US6891057B2, “Compounds for generating chemiluminescence with a peroxidase” (Lumigen, Inc., priority 1997, dated 2005).

The test addresses T1, horseradish peroxidase (HRP) (Armoracia rusticana, UniProt P00433).
T1 sequence (P00433 31-338 limits assumed): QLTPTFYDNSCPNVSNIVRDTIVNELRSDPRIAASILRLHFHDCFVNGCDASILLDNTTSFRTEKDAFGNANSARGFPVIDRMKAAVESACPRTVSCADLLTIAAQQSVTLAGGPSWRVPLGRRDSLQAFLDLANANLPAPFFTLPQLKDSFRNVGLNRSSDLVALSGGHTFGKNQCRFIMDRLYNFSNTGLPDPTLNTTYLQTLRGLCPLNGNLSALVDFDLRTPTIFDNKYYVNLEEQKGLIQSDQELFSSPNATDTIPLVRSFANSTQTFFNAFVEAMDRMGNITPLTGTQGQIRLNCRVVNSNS
The test is described as follows: Chemiluminescent detection of HRP: reaction of compound with peroxidase and peroxide. The format is biochemical. Particulars: for time to maximum chemiluminescence intensity: 0.01 M tris pH 8.0, 0.5 mM urea peroxide, 0.1 mM p-phenylphenol, 1 mM EDTA, 0.025% Tween 20, 5×10^−5 M acridan, HRP 3.5×10^−16 to 1.4×10^−15 moles. On the procedure:
FIG. 1 is a graph relating the amount of HRP to the chemiluminescence intensity at 15 min emitted by 100 μL of a reagent described in Example 20 containing acridan phosphate 5 triggered at room temperature. Chemiluminescence emission was initiated by addition of 10 μL of solutions of HRP containing between 1.4×10^−15 and 1.4×10^−19 moles of enzyme to 100 μL of the reagent comprising 0.055 M tris buffer, pH 8.6, 0.25 mM urea peroxide, 0.05 mM p-phenylphenol, 0.5 mM EDTA, 0.0125% Tween 20 and 3.3×10^−4 M acridan 5 in the wells of a black microplate. The term S-B refers to the chemiluminescence signal (S) in Relative Light Units (RLU) in the presence of HRP corrected for background chemiluminescence (B) in the absence of HRP.
FIG. 2 is a graph relating the amount of HRP to the chemiluminescence intensity at 15 min emitted by 100 μL of a reagent described in Example 21 containing acridan phosphate 13 triggered at room temperature. Chemiluminescence emission was initiated by addition of 10 μL of solutions of HRP containing between 1.4×10^−15 and 1.4×10^−19 moles of enzyme to 100 μL of a reagent comprising 0.055 M tris buffer, pH 8.6, 0.25 mM urea peroxide, 0.05 mM p-phenylphenol, 0.5 mM EDTA, 0.0125% Tween 20 and 3.3×10^−4 M acridan 13 in a black microplate.
FIG. 3 is a graph showing the time profile of chemiluminescence resulting from reaction of 1.4×10^−15 moles of HRP at 25° C. with 100 μL of the reagent containing acridan 5 described in Example 20.
FIG. 4 is a graph relating the amount of HRP to the maximum chemiluminescence intensity at 2 min emitted by 100 μL of a reagent containing acridan 37 triggered at room temperature. Chemiluminescence emission was initiated by addition of 10 μL of solutions of HRP containing between 1.4×10^−14 to 1.4×10^−19 moles to 100 μL of reagent composition comprising 0.01 M tris buffer, pH 8.0, 0.5 mM urea peroxide, 0.1 mM p-phenylphenol, 1 mM EDTA, 0.025% Tween 20 and 5×10^−5 M acridan 37.
FIG. 5 is a graph showing the time profile of chemiluminescence resulting from reaction of 1.4×10^−15 moles of HRP at 25° C. with 40 μL of a reagent comprising 0.01 M tris buffer, pH 8.0, 0.5 mM urea peroxide, 0.1 mM p-phenylphenol, 1 mM EDTA, 0.025% Tween 20 and 5×10^−5 M acridan 38.
FIG. 6 is a graph relating the amount of HRP to the maximum chemiluminescence intensity at 30 min emitted by 100 μL of a reagent containing acridan 39 triggered at room temperature. Chemiluminescence emission was initiated by addition of 10 μL of solutions of HRP containing between 1.4×10^−15 to 1.4×10^−20 moles to 100 μL of reagent composition comprising 0.01 M tris buffer, pH 8.0, 0.5 mM urea peroxide, 0.1 mM p-phenylphenol, 1 mM EDTA, 0.025% Tween 20 and 5×10^−5 M acridan 39.
FIG. 7 is a graph showing the time profile of chemiluminescence resulting from reaction of 3.5×10^−16 moles of HRP at 25° C. with 100 μL of a reagent comprising 0.01 M tris buffer, pH 8.0, 0.5 mM urea peroxide, 0.1 mM p-phenylphenol, 1 mM EDTA, 0.025% Tween 20 and 5×10^−5 M acridan 50.
FIG. 8 is a graph relating the amount of HRP to the maximum chemiluminescence intensity at 15 min emitted by 100 μL of a reagent containing acridan 43 triggered at room temperature. Chemiluminescence emission was initiated by addition of 10 μL of solutions of HRP containing between 1.4×10^−15 to 1.4×10^−19 moles to 100 μL of a reagent composition comprising 0.055 M tris buffer, pH 8.6, 0.25 mM urea peroxide, 0.05 mM p-phenylphenol, 0.5 mM EDTA, 0.0125% Tween 20, 1 mM CTAB and 6.6×10^−4 M acridan 43.
Reagent compositions comprising 0.055 M tris buffer, pH 8.6, 0.25 mM urea peroxide, 0.05 mM p-phenylphenol, 0.5 mM EDTA, 0.0125% Tween 20, 1 mM CTAB and 3.3×10^−4 M compound 46 alone or with 50 μM DBA were tested for production of chemiluminescence by reacting a 100 μL aliquot with 3.5×10^−15 moles of HRP. […]

With `CCOP(=O)(OCC)OC(Oc1ccccc1)=C1c2ccccc2N(C)c2ccccc21` [Compound 37], the “production of chemiluminescence on reaction with a peroxidase and a peroxide” value (“production of chemiluminescence” for short) is listed as “Light production ensued upon mixing”.
For the molecule `CCOP(=O)(OCC)OC(Sc1ccccc1)=C1c2ccccc2N(C)c2ccccc21` [Compound 38], the “production of chemiluminescence” value is reported as “Light production ensued upon mixing”; the “time to maximum chemiluminescence intensity” value (“time” below) is 1 min.
On to `CC(=O)OC(Oc1ccccc1)=C1c2ccccc2N(C)c2ccccc21` [Compound 39], for which the “production of chemiluminescence” value is “Light production ensued upon mixing”; the “time” value is 30 min.
On the same counts, the results for `CC(=O)OC(Sc1ccccc1)=C1c2ccccc2N(C)c2ccccc21` [Compound 40] are “Light production ensued upon mixing” and 7 min.
On to `C/C(=C(/OP(=O)([O-])[O-])Sc1ccccc1)c1ccc2cc([O-])ccc2c1.[Na+].[Na+].[Na+]` [Compound 43], for which, under “reaction with a peroxidase and a peroxide, with vs without CTAB”, the “increase of light intensity when CTAB was included in the reaction mixture” value is on record as “increased more than ten-fold”.
Turning to `COC(Sc1ccccc1)=C1c2ccccc2N(C)c2ccccc21` [Compound 50], the “production of chemiluminescence” value is recorded as “Light production ensued upon mixing”; the “time” value is reported as 7 min.
